`CC(C)c1nc(CO)n(Cc2cnc3ccccc3c2)c1Sc1cc(Cl)cc(Cl)c1` showed a melting point of 167 to 170 °C.
In the case of `CC(C)(C)c1cc2c(c(C(C)(C)C)c1O)CCS2`, the melting point was 82 °C.
`CN(C)C1CN(c2c(F)cc3c(=O)c(C(=O)O)cn(C4CC4)c3c2F)C1` gave a melting point of 256 to 260 °C.
`CC(=O)S[C@@H](CC1CCCCC1)C(=O)O` showed a melting point of 159 to 161 °C.
`CC1OCCn2c1nc(C(=O)O)c(OCc1ccccc1)c2=O` (stereo not given) gave a melting point of 167 to 168 °C.
With `Oc1cc(Br)c(Br)cc1O` the melting point was 110 to 111 °C.
`Cn1c(C#N)ccc1[N+](=O)[O-]` gave a melting point of 86 to 87 °C.
With `O=C(Oc1ccc(-c2cc3ccc(OC(=O)c4ccccc4)cc3s2)cc1)c1ccccc1` the melting point was 216 to 218 °C.
In the case of `COCOc1cc(F)ccc1-c1cc(-c2cccc(NC(=O)CN(C)C)c2)c(C#N)c(NC(=O)c2ccco2)n1`, the melting point was 168 to 169 °C.
With `Cc1c(F)cnc(N)c1F` the melting point was 92 to 93 °C.
Molecule `C[C@@H](NC(=O)C1(C)CC(F)(F)C1)c1ccc(Br)cc1` has a melting point of 120 to 122 °C.
For `Cc1cc2c(cc1C#Cc1ccc(C(=O)O)cc1)C(C)(C)CCC2`, the melting point was 203 to 206 °C.
In the case of `CCOC(=O)CC[C@@H](C(=O)OCC)N1C(=O)c2ccc([N+](=O)[O-])cc2C1=O`, the melting point was 65.5 to 66.5 °C.
`Clc1ccc(NC2COc3ccc(Br)cc32)c(Cl)c1` (stereo not given) gave a melting point of 112 to 113 °C.
Work on `Oc1ccc(-c2ncc3ncc(Nc4ccncc4)cc3n2)cc1` yielded a melting point of over 268 °C.
`CC(=O)Oc1ccc(CCc2cc(OC(C)=O)cc(OC(C)=O)c2)cc1` showed a melting point of 52 to 52.5 °C.
Work on `O=C(c1cccc(F)c1)N1CCC2(CCn3c(nc(-c4ccncn4)cc3=O)N2)C1` (stereo not given) yielded a melting point of 296 to 298 °C.
`CC1Oc2ccc(CN3CCN(CCO)CC3)cc2NC1=O` (stereo not given) showed a melting point of 174 °C.
Work on `CC(=O)OCC(=O)N(c1c(C)ccc2ccccc12)C1CCOC1=O` (stereo not given) yielded a melting point of 50 to 70 °C.
Work on `CC(=O)c1ccc2sc3ccc(C(C)=O)cc3c2c1` yielded a melting point of 207 to 210 °C.
`ON=C1CCOc2ccccc21` showed a melting point of 114 to 117 °C.
For `CN(C)C(=O)Nc1ccc(O)cc1`, the melting point was 178 to 179 °C.
For `CN1CCC(N(C)c2n[nH]c(-c3ccc(Cl)cc3)c2-c2ccncc2)CC1`, the melting point was 260 to 261 °C.
In the case of `CC(C)(C(=O)O)c1cc(C(=O)c2ccccc2)ccc1O`, the melting point was 207 °C.
With `O=c1[nH]c2cc(Cl)cc(OCCNCc3cccs3)c2[nH]1` the melting point was 179 to 180 °C.
`COc1cccc(-c2ccc(N3CCCN(c4ccc(-c5cccc(OC)c5)cn4)CC3)nc2)c1` showed a melting point of 146 to 149 °C.
Molecule `CC(C)(C)S(=O)(=O)N1C[C@H](O)C[C@@H]1c1cc(F)cc(C#N)c1` has a melting point of 93 to 96 °C.
Molecule `CCOC(=O)c1ccc(NCCCCc2cccs2)cc1` has a melting point of 63 to 65 °C.
For `CCOC(=O)CCCCCCCCCCCNC(=O)c1cc(OCc2ccccc2)ccc1OCc1ccccc1`, the melting point was 70 to 71 °C.
`CCOC(Cc1ccc(OCCN2CCSc3ccccc32)cc1)C(N)=O` (stereo not given) gave a melting point of 120 to 122 °C.
`OCCCc1ccc2ccn(C3CCN(CCc4ccc(F)cc4)CC3)c2c1` gave a melting point of 131 to 133 °C.
`CCCCCCCCCCCc1nccn1-c1nc(-c2ccc(Cl)cc2)c(CCCOc2ccccc2OC)o1` showed a melting point of 53 to 54 °C.
In the case of `O=C(O)CCC(=O)C(Cc1ccccc1)NC(=O)c1ccccc1` (stereo not given), the melting point was 143 to 146 °C.
`CCC(C)c1ccc(-n2c(-c3cc(C)c(OCCO)c(C)c3)nc3cc(S(C)(=O)=O)ccc3c2=O)cc1` (stereo not given) showed a melting point of 235 to 237 °C.
In the case of `Cc1ccc(S(=O)(=O)c2nc(Cl)c([N+](=O)[O-])s2)cc1`, the melting point was 153 to 154 °C.
`CC(C)(C)OC(=O)COc1ccc(C(=O)CN2CCN(c3ccncc3)CC2)cc1` showed a melting point of 103 to 104 °C.
Work on `NS(=O)(=O)c1cc2cc3c(cc2[nH]1)OCO3` yielded a melting point of 234 to 237 °C.
Work on `COc1cc(Nc2nccc(-c3ccc(NCC(C)(C)CN(C)C)nc3)n2)cc(OC)c1OC` yielded a melting point of 125 °C.
With `CCC(C)(C)OC(=O)N1CCC(c2ccc(COc3ccc(S(C)(=O)=O)cc3)nc2)CC1` the melting point was 114 to 115 °C.
`O=C(CC1CCNCC1)Nc1cccc(-c2ccnc3c(C(=O)c4cccs4)cnn23)c1` gave a melting point of 216 to 220 °C.

Source: a melting point compilation (Tetko et al.; mined from patent text by program, amines drawn as free bases though some values may be those of a salt)
